# Measurements: US20230080054A1 (ILDONG PHARMACEUTICAL CO., LTD., priority 2021, published 2023)
# Experiments:
# [1] = biological target: T1, human ANO6 (Homo sapiens, UniProt Q4KMQ2); assay: YFP quenching assay (ANO6 ion channel activity); assay type: cell-based; conditions: 10 μM ionomycin; for inhibition at 1 µM: test compound 1 μM, read-out: Inhibition Level 1 μM; for inhibition at 30 µM: test compound 30 μM, read-out: Inhibition Level 30 μM
# T1 construct: expressed in transfected cells
# T1 sequence (Q4KMQ2 1-931 isoform Q4KMQ2-2): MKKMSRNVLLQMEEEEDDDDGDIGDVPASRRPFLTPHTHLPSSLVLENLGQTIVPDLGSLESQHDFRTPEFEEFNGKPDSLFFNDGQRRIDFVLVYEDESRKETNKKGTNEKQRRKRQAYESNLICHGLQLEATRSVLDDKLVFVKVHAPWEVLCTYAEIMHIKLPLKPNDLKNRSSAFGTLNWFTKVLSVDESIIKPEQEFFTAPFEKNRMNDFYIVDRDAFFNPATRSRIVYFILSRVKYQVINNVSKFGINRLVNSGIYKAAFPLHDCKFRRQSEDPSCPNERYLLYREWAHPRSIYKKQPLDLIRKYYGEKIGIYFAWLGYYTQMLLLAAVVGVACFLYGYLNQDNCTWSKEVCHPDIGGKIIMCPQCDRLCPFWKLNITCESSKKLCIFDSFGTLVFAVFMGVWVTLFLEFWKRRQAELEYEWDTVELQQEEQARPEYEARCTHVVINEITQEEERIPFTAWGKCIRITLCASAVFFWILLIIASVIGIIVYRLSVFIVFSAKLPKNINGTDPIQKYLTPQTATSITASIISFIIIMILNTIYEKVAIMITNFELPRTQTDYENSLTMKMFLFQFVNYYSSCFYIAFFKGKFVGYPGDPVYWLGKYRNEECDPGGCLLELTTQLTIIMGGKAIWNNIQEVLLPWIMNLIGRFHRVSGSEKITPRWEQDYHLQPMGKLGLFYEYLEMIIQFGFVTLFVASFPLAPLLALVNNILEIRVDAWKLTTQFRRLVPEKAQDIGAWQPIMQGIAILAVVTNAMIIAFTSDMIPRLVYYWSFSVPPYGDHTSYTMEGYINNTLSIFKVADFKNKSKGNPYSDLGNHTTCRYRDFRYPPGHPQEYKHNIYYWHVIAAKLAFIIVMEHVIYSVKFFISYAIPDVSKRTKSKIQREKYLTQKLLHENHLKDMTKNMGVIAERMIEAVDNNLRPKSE
# Procedure, shortened: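 FRT cells stably expressing human ANO6 and YFP-H148Q/I152L/F46L, preincubated 10 min at 40° C with compounds (1% DMSO) in PBS. Quench read every 0.4 s after injecting 140 mM SCN- with 10 μM ionomycin; % inhibition from the 3.6–7.6 s fluorescence difference, normalised to no-ionomycin (100%) and ionomycin-only (0%) wells, duplicate or triplicate.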
# [2] = biological target: T1, human ANO6; assay: LACT C2 assay (phosphatidylserine scramblase function assay); assay type: cell-based; conditions: FRT cells expressing human ANO6, 10 μM ionomycin; for inhibition at 1 µM: test compound 1 μM, read-out: Inhibition Level 1 μM; for inhibition at 0.1 µM: test compound 100 nM, read-out: Inhibition Level 100 nM
# Procedure, shortened: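 FRT cells stably expressing human ANO6 were pretreated with compound (1% DMSO) for 10 min, then stimulated with 10 μM ionomycin for 10 min. Surface phosphatidylserine was stained with 500 nM Lact-C2-GFP and quantified by imaging. Inhibition was scaled between unstimulated (100%) and ionomycin-only (0%) controls, averaged over triplicates.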
Structure (SMILES),inhibition at 1 µM [1] [%],inhibition at 30 µM [1] [%],inhibition at 1 µM [2] [%],inhibition at 0.1 µM [2] [%]
"Cc1ccc(CNC(=O)c2cccc(Nc3ccc(-c4ccccc4)nc3)c2)o1 [Compound 6, N-[(5-methylfuran-2-yl)methyl]-3-[(6-phenylpyridin-3-yl)amino]benzamide]",≥ 60,≥ 60,30 to 60,
"Cc1ccc(CNC(=O)c2cccc(Nc3ccc(-c4ccoc4)nn3)c2)o1 [Compound 7, 3-{[6-(furan-3-yl)pyridazin-3-yl]amino}-N-[(5-methylfuran-2-yl)methyl]benzamide]",≥ 60,≥ 60,≥ 60,< 30
"Cc1ccc(CNC(=O)c2cccc(Nc3ccc(-c4cccnc4)nn3)c2)o1 [Compound 10, N-[(5-methylfuran-2-yl)methyl]-3-{[6-(pyridin-3-yl)pyridazin-3-yl]amino}benzamide]",≥ 60,≥ 60,< 30,
"CC(C)(C)CNC(=O)c1cccc(Nc2ccc(-c3ccccc3)nn2)c1 [Compound 24, N-(2,2-dimethylpropyl)-3-[(6-phenylpyridazin-3-yl)amino]benzamide]",30 to 60,≥ 60,< 30,
"O=C(NC1CCC1)c1cccc(Nc2ccc(-c3ccccc3)nn2)c1 [Compound 25, N-cyclobutyl-3-[(6-phenylpyridazin-3-yl)amino]benzamide]",30 to 60,≥ 60,30 to 60,
"O=C(Nc1cccc(F)c1)c1cccc(Nc2ccc(-c3ccccc3)nn2)c1 [Compound 29, N-(3-fluorophenyl)-3-[(6-phenylpyridazin-3-yl)amino]benzamide]",≥ 60,≥ 60,≥ 60,30 to 60
"O=C(NCC1CCC1)c1cccc(Nc2ccc(-c3ccccc3)nn2)c1 [Compound 30, N-(cyclobutylmethyl)-3-[(6-phenylpyridazin-3-yl)amino]benzamide]",≥ 60,≥ 60,30 to 60,
"O=C(NCC1CCCCC1)c1cccc(Nc2ccc(-c3ccccc3)nn2)c1 [Compound 31, N-(cyclohexylmethyl)-3-[(6-phenylpyridazin-3-yl)amino]benzamide]",≥ 60,≥ 60,≥ 60,< 30
"O=C(NCC1CC1)c1cccc(Nc2ccc(-c3ccccc3)nn2)c1 [Compound 32, N-(cyclopropylmethyl)-3-[(6-phenylpyridazin-3-yl)amino]benzamide]",≥ 60,≥ 60,< 30,
"O=C(NCC1CCCC1)c1cccc(Nc2ccc(-c3ccccc3)nn2)c1 [Compound 33, N-(cyclopentylmethyl)-3-[(6-phenylpyridazin-3-yl)amino]benzamide]",≥ 60,≥ 60,≥ 60,< 30
"O=C(NCc1ccc(Cl)c(Cl)c1)c1cccc(Nc2ccc(-c3ccccc3)nn2)c1 [Compound 36, N-(3,4-dichlorobenzyl)-3-((6-phenylpyridazin-3-yl)amino)benzamide]",≥ 60,≥ 60,≥ 60,30 to 60
"O=C(NC1CC1)c1cccc(Nc2ccc(-c3ccccc3)nn2)c1 [Compound 38, N-cyclopropyl-3-[(6-phenylpyridazin-3-yl)amino]benzamide]",≥ 60,≥ 60,< 30,
"O=C(NCc1cccs1)c1cccc(Nc2ccc(-c3ccccc3)nn2)c1 [Compound 39, 3-[(6-phenylpyridazin-3-yl)amino]-N-[(thiophen-2-yl)methyl]benzamide]",≥ 60,≥ 60,< 30,
"Cc1ccc(CNC(=O)c2cccc(Nc3ccc(-c4ccccc4)nn3)c2)s1 [Compound 40, N-[(5-methylthiophen-2-yl)methyl]-3-[(6-phenylpyridazin-3-yl)amino]benzamide]",≥ 60,≥ 60,≥ 60,< 30
"CNC(=O)c1cccc(Nc2ccc(-c3ccccc3)nn2)c1 [Compound 41, N-methyl-3-[(6-phenylpyridazin-3-yl)amino]benzamide]",30 to 60,≥ 60,< 30,
"O=C(NCc1ccsc1)c1cccc(Nc2ccc(-c3ccccc3)nn2)c1 [Compound 44, 3-[(6-phenylpyridazin-3-yl)amino]-N-[(thiophen-3-yl)methyl]benzamide]",≥ 60,,< 30,
"O=C(NCc1ccoc1)c1cccc(Nc2ccc(-c3ccccc3)nn2)c1 [Compound 45, N-[(furan-3-yl)methyl]-3-[(6-phenylpyridazin-3-yl)amino]benzamide]",≥ 60,,< 30,
"O=C(NCc1ccco1)c1cccc(Nc2ccc(-c3ccccc3)nn2)c1 [Compound 46, N-[(furan-2-yl)methyl]-3-[(6-phenylpyridazin-3-yl)amino]benzamide]",30 to 60,,30 to 60,
"O=C(NCCc1ccccc1)c1cccc(Nc2ccc(-c3ccccc3)cc2)c1 [Compound 50, 3-({[1,1′-biphenyl]-4-yl}amino)-N-(2-phenylethyl)benzamide]",≥ 60,,30 to 60,
"O=C(NCCc1ccccc1)c1cccc(Nc2cnc(-c3ccccc3)cn2)c1 [Compound 51, N-(2-phenylethyl)-3-[(5-phenylpyrazin-2-yl)amino]benzamide]",≥ 60,,≥ 60,30 to 60
"O=C(NCCc1ccccc1)c1cccc(Nc2ncc(-c3ccccc3)cn2)c1 [Compound 52, N-(2-phenylethyl)-3-[(5-phenylpyrimidin-2-yl)amino]benzamide]",≥ 60,,30 to 60,
"O=C(NCCCc1ccccc1)c1cccc(Nc2ccc(-c3ccccc3)cc2)c1 [Compound 53, 3-({[1,1′-biphenyl]-4-yl}amino)-N-(3-phenylpropyl)benzamide]",≥ 60,,≥ 60,
"O=C(NCCCc1ccccc1)c1cccc(Nc2cnc(-c3ccccc3)cn2)c1 [Compound 54, N-(3-phenylpropyl)-3-[(5-phenylpyrazin-2-yl)amino]benzamide]",≥ 60,,< 30,
"Cc1ccc(CNC(=O)c2cccc(Nc3ccc(-c4cccc(F)c4)cc3)c2)o1 [Compound 57, 3-({3′-fluoro-[1,1′-biphenyl]-4-yl}amino)-N-[(5-methylfuran-2-yl)methyl]benzamide]",≥ 60,,≥ 60,< 30
"Cc1ccc(CNC(=O)c2cccc(Nc3cnc(-c4cccc(F)c4)cn3)c2)o1 [Compound 58, 3-{[5-(3-fluorophenyl)pyrazin-2-yl]amino}-N-[(5-methylfuran-2-yl)methyl]benzamide]",≥ 60,,< 30,
"O=C(NCCCc1ccccc1)c1cccc(Nc2ncc(-c3cccc(F)c3)cn2)c1 [Compound 60, 3-{[5-(3-fluorophenyl)pyrimidin-2-yl]amino}-N-(3-phenylpropyl)benzamide]",≥ 60,,≥ 60,30 to 60
"Cc1ccc(CNC(=O)c2cccc(Nc3ccc(C4CCCCC4)nn3)c2)o1 [Compound 63, 3-[(6-cyclohexylpyridazin-3-yl)amino]-N-[(5-methylfuran-2-yl)methyl]benzamide]",30 to 60,,< 30,
"CCC(CC)NC(=O)c1cccc(Nc2ccc(-c3ccccc3)nn2)c1 [Compound 66, N-(pentan-3-yl)-3-[(6-phenylpyridazin-3-yl)amino]benzamide]",30 to 60,,< 30,
